Read-outs that look alike come from different tables or passages of the source.
Key:
hGRα = molecular target: T1, hGRα (Homo sapiens, UniProt P04150); assay: Activation of hGRα on MTV-luc; format: cell-based; conditions: 50 μM (FIG. 7D; 50 mM in FIG. 5 legend)
T1 construct: expressed in transfected cells
T1 sequence (P04150 1-777): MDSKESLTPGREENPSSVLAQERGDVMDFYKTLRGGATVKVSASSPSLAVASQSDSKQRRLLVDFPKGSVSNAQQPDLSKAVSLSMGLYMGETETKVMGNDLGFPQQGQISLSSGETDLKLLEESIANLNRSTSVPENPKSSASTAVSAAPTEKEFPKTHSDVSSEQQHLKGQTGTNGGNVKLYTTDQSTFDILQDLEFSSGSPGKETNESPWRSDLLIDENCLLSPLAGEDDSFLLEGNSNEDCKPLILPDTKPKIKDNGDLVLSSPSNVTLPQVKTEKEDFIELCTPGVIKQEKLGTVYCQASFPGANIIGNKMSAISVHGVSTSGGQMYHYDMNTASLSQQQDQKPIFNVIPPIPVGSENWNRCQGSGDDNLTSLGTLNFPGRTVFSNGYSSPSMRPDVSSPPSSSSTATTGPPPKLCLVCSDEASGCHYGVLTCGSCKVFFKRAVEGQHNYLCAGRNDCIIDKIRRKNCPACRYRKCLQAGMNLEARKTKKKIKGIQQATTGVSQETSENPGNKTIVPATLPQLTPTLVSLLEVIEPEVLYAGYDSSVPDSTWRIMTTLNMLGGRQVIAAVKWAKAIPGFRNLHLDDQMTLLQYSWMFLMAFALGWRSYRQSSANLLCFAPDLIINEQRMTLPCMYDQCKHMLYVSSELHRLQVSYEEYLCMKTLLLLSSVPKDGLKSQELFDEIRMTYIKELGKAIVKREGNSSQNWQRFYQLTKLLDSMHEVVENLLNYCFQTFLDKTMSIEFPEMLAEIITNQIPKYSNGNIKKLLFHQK
Procedure: FIG. 5 further illustrates the broad ligand specificity of SXR. […] 6β-hydroxylated, non-reduced, 5α and 5β reduced forms of corticosterone were tested for their ability to activate GAL-SXR on tk(MH100)4-luc and hGRa on MTV-luc at […].
6β-hydroxylated, non-reduced, 5α and 5β reduced forms of corticosterone were tested for their ability to activate GAL-hSXR on tk(MH100)4-luc (lefthand group of 5 columns) and hGRα on MTV-luc at 50 μM (righthand group of 5 columns). […] In each group of columns: column 1=solvent; column 2=corticosterone; column 3=5α-tetrahydrocorticosterone; column 4=5β-tetrahydrocorticosterone; and column 5=6β-OH-corticosterone.

SXR [1] = molecular target: T2, SXR (Homo sapiens, UniProt O75469)
T2 sequence (O75469 1-434): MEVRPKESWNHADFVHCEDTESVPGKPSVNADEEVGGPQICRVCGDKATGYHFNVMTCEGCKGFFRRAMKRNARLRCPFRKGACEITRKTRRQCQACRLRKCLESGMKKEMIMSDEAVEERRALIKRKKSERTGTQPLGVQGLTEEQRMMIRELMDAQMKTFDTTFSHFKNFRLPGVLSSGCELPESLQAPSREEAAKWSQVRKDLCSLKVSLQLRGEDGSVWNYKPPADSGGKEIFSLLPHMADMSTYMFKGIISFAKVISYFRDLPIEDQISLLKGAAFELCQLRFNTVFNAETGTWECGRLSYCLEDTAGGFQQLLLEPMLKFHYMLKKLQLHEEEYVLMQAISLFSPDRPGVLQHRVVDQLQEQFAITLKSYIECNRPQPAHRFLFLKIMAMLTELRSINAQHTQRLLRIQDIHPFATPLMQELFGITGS
T2 sequence (P19793 1-462 partner): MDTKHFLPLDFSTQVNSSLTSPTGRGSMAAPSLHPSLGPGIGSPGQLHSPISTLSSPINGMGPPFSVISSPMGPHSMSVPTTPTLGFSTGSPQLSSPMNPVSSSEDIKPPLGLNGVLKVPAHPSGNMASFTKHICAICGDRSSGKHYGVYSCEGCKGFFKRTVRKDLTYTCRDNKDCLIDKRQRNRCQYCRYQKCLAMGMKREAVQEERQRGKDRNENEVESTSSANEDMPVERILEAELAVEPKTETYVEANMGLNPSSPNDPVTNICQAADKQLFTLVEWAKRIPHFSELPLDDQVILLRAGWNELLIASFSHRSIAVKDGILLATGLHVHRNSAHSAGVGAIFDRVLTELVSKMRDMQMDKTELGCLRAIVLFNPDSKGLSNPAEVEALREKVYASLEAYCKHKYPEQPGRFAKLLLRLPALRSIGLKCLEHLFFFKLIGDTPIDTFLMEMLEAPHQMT
From the text: (§4) Thus, the protein coding region of SXR was PCR amplified and subcloned into NcoI and BamH1 sites of the vector pCDG1 (see Blumberg et al., supra). During this process the putative initiator Leu was converted to Met with a Kozak consensus sequence CCATGG.

SXR [2] = molecular target: T3, SXR (Homo sapiens, UniProt O75469); remark: listed apart in the source
T3 sequence (O75469 1-434): T2 sequence (O75469 1-434)
Procedure: (§1) The PCR-amplified sequences and target mutagenesis were confirmed by DNA sequencing.
(§2) All compounds were purchased from Sigma.
(§3) A panel of natural and synthetic steroid and nonsteroid compounds were tested for their ability to activate SXR and/or PXR in transfection-based assays using primary rat hepatocytes as recipient cells and the cellular promoters of the rat CYP3A23 gene or the human CYP3A4 gene as reporters.

CYP3A11 gene = conditions: single dose 24 h before sacrifice; for Induction of liver CYP3A11 expression in Alb-SXR transgenic mice: RIF 5 mg/kg, BRL 20 mg/kg, troglitazone and ciglitazone 150 mg/kg by gavage, CTZ 50 mg/kg, PCN 40 mg/kg i.p.; for Induction of liver CYP3A11 expression in wild type / nontransgenic mice: same doses as in transgenic mice
Procedure: The animals were allowed free access to food and water at all times. […] When necessary, mice were treated with a single intraperitoneal injection of DEX (50 mg/kg), PCN (40 mg/kg), or CTZ (50 mg/kg).
To detect specific transcripts, [^32P]-cDNA probes labeled by Random Primer Labeling Kit (Boringher) were hybridized to the membranes. The probe used to detect transgene contains both the SXR cDNA and the SV40 sequences. […] The filters were subsequently stripped and rehybridized with a murine glyceraldehyde-3-phosphate dehydrogenase (GAPDH) cDNA probe for RNA loading normalization.
Tissues were harvested 24 h later and subjected to Northern blot analysis.

mouse PXR = molecular target: T4, mouse PXR (Mus musculus, UniProt O54915); assay: Transfection-based reporter assay in CV-1 cells, mouse PXR; conditions: 50 μM, tamoxifen 5 μM (FIG. 7B)
T4 sequence (O54915 1-431): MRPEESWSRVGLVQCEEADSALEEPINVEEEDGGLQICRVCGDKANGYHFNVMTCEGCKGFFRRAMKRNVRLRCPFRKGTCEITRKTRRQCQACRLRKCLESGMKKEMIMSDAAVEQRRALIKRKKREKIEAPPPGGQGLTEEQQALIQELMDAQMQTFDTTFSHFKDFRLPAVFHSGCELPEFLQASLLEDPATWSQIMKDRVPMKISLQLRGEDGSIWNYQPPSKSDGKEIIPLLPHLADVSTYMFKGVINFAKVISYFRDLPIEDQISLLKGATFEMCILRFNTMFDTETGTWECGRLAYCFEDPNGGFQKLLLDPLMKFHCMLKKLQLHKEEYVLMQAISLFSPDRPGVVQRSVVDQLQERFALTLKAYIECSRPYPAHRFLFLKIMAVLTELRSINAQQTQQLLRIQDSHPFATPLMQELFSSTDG
From the text: FIGS. 7A-C are bar graphs illustrating the ability of a panel of compounds to activate a representative of three members of the nuclear receptor superfamily, human SXR (FIG. 7A); mouse PXR (FIG. 7B); and human estrogen receptor alpha (hERα; FIG. 7C).

SXR [3] = molecular target: T2, SXR; assay: Transfection-based reporter assay in CV-1 cells, GAL4-SXR or full-length SXR; set-up: Activation of SXR response elements (DR-3, DR-4, DR-5) by full-length SXR: dose or concentration left out as unconfirmed; conditions: for Activation of SXR in transfection-based assays: GAL4-SXR LBD chimera or full-length SXR, CV-1 cells, steroids at high doses, up to 50 mM [sic]; for Activation of SXR response elements (DR-3, DR-4, DR-5) by full-length SXR: cotransfection, panel of steroids as printed (FIG. 4)
From the text: as §4

[4] = clinical trials, of 2510 patients; cited from earlier work
endogenous PXR [5] = molecular target: T5, endogenous PXR (Rattus norvegicus, UniProt Q9R1A7); conditions: hepatocytes
T5 sequence (Q9R1A7 1-431): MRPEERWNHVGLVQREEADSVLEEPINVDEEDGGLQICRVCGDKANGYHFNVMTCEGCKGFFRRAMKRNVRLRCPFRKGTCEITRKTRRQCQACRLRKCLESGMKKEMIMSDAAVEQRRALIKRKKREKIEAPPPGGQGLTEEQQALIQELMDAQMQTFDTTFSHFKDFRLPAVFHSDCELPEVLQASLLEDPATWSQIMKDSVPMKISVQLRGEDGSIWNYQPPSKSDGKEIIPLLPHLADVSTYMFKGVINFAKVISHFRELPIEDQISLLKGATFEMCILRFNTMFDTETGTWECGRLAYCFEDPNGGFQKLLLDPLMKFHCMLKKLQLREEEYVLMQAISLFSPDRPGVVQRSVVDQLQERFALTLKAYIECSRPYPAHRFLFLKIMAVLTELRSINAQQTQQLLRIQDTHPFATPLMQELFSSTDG
Procedure: as §1, §2, §3

endogenous PXR [6] = molecular target: T5, endogenous PXR; assay: Human CYP3A4 cellular promoter reporter in primary rat hepatocytes, endogenous receptor; conditions: rodent cellular environment (FIG. 8B)
From the text: as §1, §2

C[C@]12CC[C@@H](O)C[C@@H]1CC[C@@H]1[C@@H]2[C@@H](O)C[C@]2(C)[C@@H](C(=O)CO)CC[C@@H]12 [5α, 5α-tetrahydrocorticosterone]
Activation of hGRα on MTV-luc by corticosterone derivatives (hGRα): slightly active
Activation of GAL-SXR on tk(MH100)4-luc by corticosterone derivatives (SXR [1]): effective SXR activators

Clc1ccccc1C(c1ccccc1)(c1ccccc1)n1ccnc1 [CTZ, clotrimazole]
Activation of CYP3A23 promoter reporter with mutated DR-3 element (DR3/M1, DR3/M2) (SXR [2]): abolished
Inducibility of CYP3A23 promoter reporter with DR-3 replaced by IR-6 element (DR3/IR6) (SXR [2]): rescueS the inducibility
Induction of liver CYP3A11 expression in Alb-SXR transgenic mice (CYP3A11 gene): higher level
Induction of liver CYP3A11 expression in wild type / nontransgenic mice (CYP3A11 gene): moderate level

C[C@]12CC[C@@H]3c4ccc(O)cc4CC[C@H]3[C@@H]1CC[C@@H]2O [estradiol, 17β-estradiol]
Activation of mouse PXR (mouse PXR): similarly activated
Induction of CYP3A23 promoter reporter with co-transfection of SXR (SXR [2]): significant induction
Activation of human SXR by compounds known to induce CYP3A4 (SXR [3]; 50 μM, tamoxifen 5 μM (FIG. 7A)): most potent activators
Activation of SXR in transfection-based assays (SXR [3]): remarkably effective activators
Activation of SXR response elements (DR-3, DR-4, DR-5) by full-length SXR (SXR [3]): among the best activators

Cc1c(C)c2c(c(C)c1O)CCC(C)(COc1ccc(CC3SC(=O)NC3=O)cc1)O2 (stereo not shown) [troglitazone]
Incidence of hepatotoxicity (alanine aminotransferase level > three times the upper limit of normal) [4]: 1.9%

C[C@]12C[C@H](O)[C@H]3[C@@H](C[C@@H](O)C4=CC(=O)CC[C@@]43C)[C@@H]1CC[C@@H]2C(=O)CO [6β-hydroxy corticosterone]
Activation of hGRα on MTV-luc by corticosterone derivatives (hGRα): slightly active

CC(=O)[C@H]1[C@H](C#N)C[C@H]2[C@@H]3CC=C4C[C@@H](O)CC[C@]4(C)[C@H]3CC[C@@]21C [PCN, pregnenolone-16-carbonitrile]
Activation of mouse PXR (mouse PXR): preferentially activated
Activation of CYP3A23 promoter reporter with mutated DR-3 element (DR3/M1, DR3/M2) (SXR [2]): abolished
Inducibility of CYP3A23 promoter reporter with DR-3 replaced by IR-6 element (DR3/IR6) (SXR [2]): rescueS the inducibility
Induction of CYP3A23 promoter reporter with co-transfection of SXR (SXR [2]): remained unchanged
Activation of CYP3A23 promoter reporter in the absence of SXR (endogenous PXR [5]): most potent and efficacious tested activators
Activation of human CYP3A4 promoter reporter via endogenous PXR (endogenous PXR [6]): can be activated
Induction of liver CYP3A11 expression in Alb-SXR transgenic mice (CYP3A11 gene): equally efficacious CYP3A11 inducer
Induction of liver CYP3A11 expression in wild type / nontransgenic mice (CYP3A11 gene): equally efficacious CYP3A11 inducer
Activation of human SXR by compounds known to induce CYP3A4 (SXR [1]): weak activator
Activation of SXR in transfection-based assays (SXR [3]): activated
Activation of SXR response elements (DR-3, DR-4, DR-5) by full-length SXR (SXR [3]): among the best activators

C[C@]12CCC(O)C[C@H]1CC[C@@H]1[C@@H]2[C@@H](O)C[C@]2(C)[C@@H](C(=O)CO)CC[C@@H]12 (stereo partly drawn) [5β, 5β-tetrahydrocorticosterone]
Activation of hGRα on MTV-luc by corticosterone derivatives (hGRα): completely inactive
Activation of GAL-SXR on tk(MH100)4-luc by corticosterone derivatives (SXR [1]): effective SXR activators

C[C@]12CC[C@H]3[C@@H](CCC4=CC(=O)CC[C@@]43C)[C@@H]1CC[C@@H]2O [testosterone]
Activation of mouse PXR (mouse PXR): similarly activated
Activation of SXR in transfection-based assays (SXR [1]): activated

Reference: patent publication US6911537B2, “Xenobiotic compound modulated expression systems and uses therefor” (The Salk Institute for Biological Studies, priority 1998, dated 2005)
